From US4794116A, “Anti-allergic esters, acetal ethers, thioethers and nitrogen substituted derivatives of bicyclic compounds” (Schering Corporation, priority 1986, dated 1988)

Key:
[1] = test system: anaphylactic bronchospasm; assay: inhibition of anaphylactic bronchospasm in sensitized guinea pigs having antigen induced broncho-constriction; type: in vivo, guinea pig (male Hartley); settings: for % Inhibition After 8 hr (peak increase in intratracheal pressure): 8 hours before ovalbumin challenge
Description: The anti-allergy method of this invention is identified by tests which measure a compound's inhibition of anaphylactic bronchospam in sensitized guinea pigs having antigen induced broncho-constriction.
In one such test procedure, male Hartley guinea pigs (250-300 g) are sensitized with 5 mg ovalbumin injected i.p. and 5 mg injected s.c. in 1 ml saline on day 1 and 5 mg ovalbumin injected i.p. on day 4. The sensitized animals are used 3-4 weeks later at which time they weigh 450-500 g.
The sensitized guinea pigs are fasted overnight and the following morning are anesthetized with 0.9 ml/kg i.p. of dialurethane (0.1 g/m diallybarbituric acid, 0.4 g/ml ethylurea and 0.4 g/ml urethane). The trachea are cannulated and the animals are ventilated by a Harvard rodent respirator at 50 strokes/minute with a stroke volume of 5 ml. A side arm to the tracheal cannula is connected to a Harvard pressure transducer to obtain a continuous measure of intratracheal pressure which is recorded on a Harvard polygraph. The jugular vein is cannulated for the i.v. administration of substances. The animals are challenged with antigen (0.5% ovalbumin) as an aerosol generated from a DeVilbiss Model 65 ultrasonic nebulizer and delivered through the tracheal cannula for 30 seconds. Bronchoconstriction is measured as the peak increase in intratracheal pressure occuring within 5 minutes after antigen challenge.
The sensitized guinea pigs are injected i.v. with 1 mg/kg propranolol, 5 mg/kg indomethacin and 2 mg/kg mepyramine given together in a volume of 1 ml/kg. Fifteen minutes later the animals are challenged with nebulized ovalbumin. Test compounds are administered orally 2 or 8 hours before challenge with ovalbumin. Suppression of anaphylactic bronchospasm is expressed as a percent inhibition of the peak increase in intratracheal pressure by comparison to a vehicle-treated control group.
*This measurement was made in a 21/2 day multipledosing regimen version o

paw edema = assay: Reversed Passive Arthus Response (RPAR) Paw; type: in vivo, rat (male Lewis); settings: oral dose of 25 mg/kg; for inhibited the paw edema at 2 hours: 2 hours post-challenge; for inhibited the paw edema at 4 hours: 4 hours post-challenge
Description: Reversed Passive Arthus Response (RPAR) PAW Animals, Materials and Methods
Male Lewis inbred albino rats weighing 180-200 grams obtained from Charles River Breeding Laboratories are used in these experiments. The rats are housed 3 animals/cage and food and water are allowed ad libitum. The animals are numbered 1-3 in each cage and color marked for identification purposes.
CL Drug and Reagent Preparation
All reagents and drugs are prepared just prior to the study. Crystallized and lyophilized bovine serum albumin (BSA), available from Sigma Chemical Company, is solubilized without shaking in cold, sterile, pyrogen-free saline (10 mg/ml). Lyophilized anti-bovine serum albumin (IgG fraction), obtained from Cappel Laboratories, is suspended in sterile distilled water and diluted with cold, pyrogen-free saline (PFS) just prior to use. The final concentration of anti-bovine serum albumin is 0.5 mg/ml of PFS. Both BSA and anti-BSA solutions are iced during use. Drugs are suspended or solubilized in an aqueous solution of methyl cellulose (MC) with an homogenizer just prior to administration.
Drug Administration and Induction of Inflammation
Groups of animals (6/group) are dosed with drug in MC by gavage once daily for 3 days. The last dose is administered one hour prior to sensitization with BSA. Controls are given MC alone and a drug-standard is usually included in each assay for verification purposes. Drugs are prepared and diluted so as to provide a dose for a 200 gram animal which is equivalent to the mg/kg dose for each experiment. Thus each rat receives an oral dose in a volume of approximately 2.0 cc. One hour after the last dose the animals are lightly anesthetized with ether and "sensitized" by injection of 0.2 ml of PFS containing 1.0 mg of BSA into the penile vein. One hour later, the animals are "challenged" in the right rear paw with subplantar injections of 0.2 ml of PFS containing 0.1 mg of anti-BSA. Immediately after the subplantar injection, the right paw is dipped (up to the lateral maleolus) into the mercury well of a plethysmograph. The volume of mercury displaced is converted to weight and recorded. This value is considered to be the control reading for the animal. Paw volumes are subsequently recorded with a plethysmograph during the development of the inflammation at 2 and 4 hours post-challenge.
Results are expressed by the change in paw volume (Δpaw volume) from the control reading for each animal to that recorded 2 and 4 hours post-challenge. All drug treated groups are compared to the MC control for significant differences with an analysis of variance. Differences from control in drug-treated groups are expressed as percent change from control. […]

[2] = 5 mg/kg p.o., 2 hours before ovalbumin challenge

Q: Which “% Inhibition After 2 hr (peak increase in intratracheal pressure)” value [1, 2] does the source give for `Cc1ccc(C(=O)Oc2c(N3CCCC3)c(=O)n(-c3ccccc3)c3ncccc23)cc1` [Example 1, 4-(4-methylbenzoyloxy)-1-phenyl-3(1-pyrrolidinyl)-1,8-naphthyridin-2(1H)-one] here?
A: 30%

Q: And the “% Inhibition After 8 hr (peak increase in intratracheal pressure)” value ([1]; 5 mg/kg p.o.)?
A: 0%

Q: For `CC(=O)Oc1c(N2CCCC2)c(=O)n(-c2ccccc2)c2ncccc12` [Example 2, 4-acetyloxy-1-phenyl-3-(1-pyrrolidinyl)-1,8-naphthyridin-2(1H)-one], which “% Inhibition After 2 hr (peak increase in intratracheal pressure)” value ([1]; 10 mg/kg p.o., 2 1/2 day multiple-dosing regimen version of the assay) is on record?
A: 87%

Q: For `CC(C)(C)C(=O)Oc1c(N2CCCC2)c(=O)n(-c2ccccc2)c2ncccc12` [Example 3, 4-(2,2-dimethylpropionyloxy)-1-phenyl-3-(1-pyrrolidinyl)-1,8-naphthyridin-2(1H)-one], which “% Inhibition After 2 hr (peak increase in intratracheal pressure)” value [1, 2] is on record?
A: 48%

Q: And the “% Inhibition After 8 hr (peak increase in intratracheal pressure)” value ([1]; 5 mg/kg p.o.)?
A: 49%

Q: And the “inhibited the paw edema at 2 hours” value (paw edema)?
A: 28%

Q: What about the “inhibited the paw edema at 4 hours” value (paw edema) of the same compound?
A: 5%

Q: Which results are given for `CCN(CC)C(=O)Oc1c(N2CCCC2)c(=O)n(-c2ccccc2)c2ncccc12` [Example 4, 4-(N,N-diethylcarbamoyloxy)-1-phenyl-3-(1-pyrrolidinyl)-1,8-naphthyridin-2(1H)-one]?
A: % Inhibition After 2 hr (peak increase in intratracheal pressure) [1, 2]: 48%; % Inhibition After 8 hr (peak increase in intratracheal pressure) ([1]; 5 mg/kg p.o.): 32%; inhibited the paw edema at 2 hours (paw edema): 54%; inhibited the paw edema at 4 hours (paw edema): 17%
